Results taken from ChEMBL document CHEMBL5233265, “Recent advances in the design and development of formyl peptide receptor 2 (FPR2/ALX) agonists as pro-resolving agents with diverse therapeutic potential” (Eur J Med Chem, 2021).
pEC50, pIC50: −log10 of the molar value.

What was measured:
[1] = test system: Mus musculus; test: Neuroprotective activity against Myocardial infarction C57BL/6 mouse model assessed as fold increase in infarct wall thickness at 10 mg/kg,po qd measured after 4 weeks; assay type: functional
[2] = target: T1, N-formyl peptide receptor 2 (Homo sapiens, UniProt P25090); test: Agonist activity at human FPR2 expressed in CHO-K1 cells by beta-arrestin recruitment assay; assay type: cell-based
T1 sequence (P25090 whole entry): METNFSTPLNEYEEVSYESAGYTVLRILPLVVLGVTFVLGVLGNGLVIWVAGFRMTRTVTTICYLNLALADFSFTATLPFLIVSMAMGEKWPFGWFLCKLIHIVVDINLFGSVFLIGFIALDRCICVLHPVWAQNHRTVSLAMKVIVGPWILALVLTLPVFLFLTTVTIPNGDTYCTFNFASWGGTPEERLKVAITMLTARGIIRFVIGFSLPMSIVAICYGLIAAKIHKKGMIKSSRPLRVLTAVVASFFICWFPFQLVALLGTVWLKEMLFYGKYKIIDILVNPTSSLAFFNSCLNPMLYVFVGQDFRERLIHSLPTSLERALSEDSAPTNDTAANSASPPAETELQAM

[3] = target: T2, Formyl peptide receptor-related sequence 1 (Mus musculus, UniProt O08790); test: Agonist activity at mouse FPR3 expressed in CHO-A12 cells assessed as cAMP level incubated for 1.5 hr by HTRF assay; assay type: cell-based
T2 sequence (O08790 whole entry): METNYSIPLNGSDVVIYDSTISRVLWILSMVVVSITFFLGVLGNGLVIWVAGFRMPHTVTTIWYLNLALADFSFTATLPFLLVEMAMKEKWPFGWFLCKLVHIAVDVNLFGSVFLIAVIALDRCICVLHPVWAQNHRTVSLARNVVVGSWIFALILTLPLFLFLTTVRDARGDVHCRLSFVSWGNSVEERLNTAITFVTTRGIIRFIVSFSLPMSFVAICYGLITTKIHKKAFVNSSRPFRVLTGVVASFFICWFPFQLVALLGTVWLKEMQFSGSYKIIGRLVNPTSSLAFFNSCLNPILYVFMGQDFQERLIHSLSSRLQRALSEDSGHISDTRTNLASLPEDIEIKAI

[4] = test system: Rattus norvegicus; test: Neuroprotective activity against ischemia-reperfusion injury Sprague-Dawley rat model assessed as increase in mid viable myocardium at 10 mg/kg,po qd measured after 6 weeks; assay type: functional
[5] = target: T1, N-formyl peptide receptor 2; test: Agonist activity at human FPR2 expressed in CHO-A12 cells assessed as cAMP level incubated for 1.5 hr by HTRF assay; assay type: cell-based
[6] = target: T3, Formyl peptide receptor 2 (Mus musculus, UniProt O88536); test: Agonist activity at mouse FPR2 expressed in CHO-A12 cells assessed as cAMP level incubated for 1.5 hr by HTRF assay; assay type: cell-based
T3 sequence (O88536 whole entry): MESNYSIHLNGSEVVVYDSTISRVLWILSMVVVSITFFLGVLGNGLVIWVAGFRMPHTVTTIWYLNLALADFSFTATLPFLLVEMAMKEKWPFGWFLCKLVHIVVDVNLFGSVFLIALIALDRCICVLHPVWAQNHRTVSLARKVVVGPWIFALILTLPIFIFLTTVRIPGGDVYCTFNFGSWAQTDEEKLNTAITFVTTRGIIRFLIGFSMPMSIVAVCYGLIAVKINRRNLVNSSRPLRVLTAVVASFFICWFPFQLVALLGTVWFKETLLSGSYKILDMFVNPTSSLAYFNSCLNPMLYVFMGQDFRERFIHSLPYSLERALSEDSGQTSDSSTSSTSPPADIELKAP

[7] = test system: HL-60; test: Induction of cell migration in human HL-60 cells incubated for 120 mins by transwell assay; assay type: functional, cell-based; settings: HL-60, 2 h
[8] = test system: HL-60; test: Inhibition of cell migration in human HL-60 cells incubated for 120 mins in presence of serum amyloid A by transwell assay; assay type: functional, cell-based; settings: HL-60, 2 h
[9] = test system: Rattus norvegicus; test: Neuroprotective activity against ischemia-reperfusion injury Sprague-Dawley rat model assessed as increase in ejection fraction at 10 mg/kg,po qd measured after 6 weeks; assay type: functional
[10] = test system: Rattus norvegicus; test: Neuroprotective activity against ischemia-reperfusion injury Sprague-Dawley rat model assessed as increase in proximal viable myocardium at 10 mg/kg,po qd measured after 6 weeks; assay type: functional
[11] = test system: Mus musculus; test: Neuroprotective activity against Myocardial infarction C57BL/6 mouse model assessed as reduction in infarct area at 10 mg/kg,po qd measured after 4 weeks; assay type: functional; parameters: scale not given: the % may be the effect or the level left
[12] = test system: Mus musculus; test: Neuroprotective activity against Myocardial infarction C57BL/6 mouse model assessed as reduction in infarct area at 1 mg/kg,po qd measured after 4 weeks; assay type: functional; parameters: scale not given: the % may be the effect or the level left
[13] = test system: Rattus norvegicus; test: Neuroprotective activity against ischemia-reperfusion injury Sprague-Dawley rat model assessed as increase in distal viable myocardium at 10 mg/kg,po qd measured after 6 weeks; assay type: functional
[14] = target: T4, fMet-Leu-Phe receptor (Mus musculus, UniProt P33766); test: Agonist activity at mouse FPR1 expressed in CHO-A12 cells assessed as cAMP level incubated for 1.5 hr by HTRF assay; assay type: cell-based
T4 sequence (P33766 whole entry): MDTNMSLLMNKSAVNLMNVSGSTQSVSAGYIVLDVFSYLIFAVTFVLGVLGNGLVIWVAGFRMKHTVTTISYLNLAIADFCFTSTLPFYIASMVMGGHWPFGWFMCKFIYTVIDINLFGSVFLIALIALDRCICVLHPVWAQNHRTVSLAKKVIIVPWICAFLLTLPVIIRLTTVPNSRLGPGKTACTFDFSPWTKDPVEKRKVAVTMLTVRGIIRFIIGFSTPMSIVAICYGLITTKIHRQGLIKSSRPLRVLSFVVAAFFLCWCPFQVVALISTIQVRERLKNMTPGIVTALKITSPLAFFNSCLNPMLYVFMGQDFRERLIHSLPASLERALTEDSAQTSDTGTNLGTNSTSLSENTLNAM

[15] = target: T5, fMet-Leu-Phe receptor (Homo sapiens, UniProt P21462); test: Agonist activity at human FPR1 expressed in CHO-A12 cells assessed as cAMP level incubated for 1.5 hr by HTRF assay; assay type: cell-based
T5 sequence (P21462 whole entry): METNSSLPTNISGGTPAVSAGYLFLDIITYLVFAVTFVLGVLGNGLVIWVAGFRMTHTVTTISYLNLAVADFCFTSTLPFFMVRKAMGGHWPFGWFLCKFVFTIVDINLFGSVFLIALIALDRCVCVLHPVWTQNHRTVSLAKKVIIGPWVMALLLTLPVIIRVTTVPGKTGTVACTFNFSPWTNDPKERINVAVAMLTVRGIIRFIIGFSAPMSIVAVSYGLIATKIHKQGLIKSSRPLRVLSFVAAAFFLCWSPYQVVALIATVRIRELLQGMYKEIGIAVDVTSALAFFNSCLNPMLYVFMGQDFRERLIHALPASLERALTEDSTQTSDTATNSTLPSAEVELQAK

SMILES: Cn1c(C(C)(C)C)c(NC(=O)Nc2ccc(Cl)cc2)c(=O)n1-c1ccccc1
- fold change (FC) [1]: 1.6
- pEC50 [2]: 5.51
- pEC50 [3]: < 6.00
- Activity [4]: 44%
- pEC50 [5]: 8.00
- pEC50 [6]: 7.30
- pEC50 [7]: 7.11
- pIC50 [8]: 6.72
- Activity [9]: 32%
- Activity [10]: 34%
- Activity [11]: 49%
- Activity [12]: 44%
- Activity [13]: 35%
- pEC50 [14]: 7.70
- pEC50 [15]: 7.30
